Test results published in patent US6428971B1, “Teichoic acid enzymes and assays” (priority 1996, dated 2002).

What was measured:
TAP [1] = biological target: T1, TAP (Bacillus subtilis, UniProt P13485); assay: TAP enzyme assay (acid precipitation of radioactive lipoteichoic acid); assay type: biochemical, B. subtilis; conditions: lipoteichoic acid from either B. subtilis, S. aureus, or E. faecalis
T1 construct: corresponds to a 2163 bp open reading frame beginning with ATG at bp 100 and ending with TAA at bp 2263; made in house; host or cells: E. coli DH10B / pBSRODC1 (pTrc99A vector); membrane preparation, 2M NaCl extract, High Q fraction
T1 sequence (P13485 26-746 A616V): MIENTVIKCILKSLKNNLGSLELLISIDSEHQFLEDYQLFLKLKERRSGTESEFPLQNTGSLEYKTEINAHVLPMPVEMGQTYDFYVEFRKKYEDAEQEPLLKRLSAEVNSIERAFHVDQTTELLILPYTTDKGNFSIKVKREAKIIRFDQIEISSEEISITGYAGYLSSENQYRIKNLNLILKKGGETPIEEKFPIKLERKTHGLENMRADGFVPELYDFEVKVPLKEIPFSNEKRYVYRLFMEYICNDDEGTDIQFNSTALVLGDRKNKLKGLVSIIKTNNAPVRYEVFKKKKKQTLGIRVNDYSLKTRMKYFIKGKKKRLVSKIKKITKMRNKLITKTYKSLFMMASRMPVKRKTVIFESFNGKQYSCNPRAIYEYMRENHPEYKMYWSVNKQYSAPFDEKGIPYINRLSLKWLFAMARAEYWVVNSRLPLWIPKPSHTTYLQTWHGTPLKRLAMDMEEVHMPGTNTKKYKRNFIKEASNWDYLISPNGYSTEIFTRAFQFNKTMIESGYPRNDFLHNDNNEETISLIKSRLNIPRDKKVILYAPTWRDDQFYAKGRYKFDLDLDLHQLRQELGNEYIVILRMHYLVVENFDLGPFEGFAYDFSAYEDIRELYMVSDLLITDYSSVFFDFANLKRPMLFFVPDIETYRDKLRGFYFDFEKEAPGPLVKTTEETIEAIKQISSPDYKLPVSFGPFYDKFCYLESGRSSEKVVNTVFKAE
Method: (§1) The enzymatic activity of TAP was assayed using CDP[^3H]glycerol as the glycerolphosphate donor and B. subtilis lipoteichoic acid as the acceptor. If active, the recombinant TAP enzyme should lengthen lipoteichoic acid with radioactive glycerolphosphate monomers, producing acid precipitable radioactivity. […] Extraction of TAP from the E. coli membrane with 2 M NaCl produced an active TAP preparation that could be separated from the cell membrane by ultracentrifugation.
(§2) The method of Burger and Glaser was generally followed. Burger M M, Glaser L. “The synthesis of teichoic acids” J. Biol. Chem. (1964) vol. 239, pp. 3168-3177, incorporated by reference. A typical assay contained 1-100 μl of enzyme, 10 μl of lipoteichoic acid (1 mg/ml B. subtilis lipoteichoic acid [Sigma] in water), 25 μl of CDP[^3H]glycerol (10 mM CDPglycerol Specific Activity 8.8 μCi/μMole), and enough Buffer A to bring the total volume to 250 μl. The reaction was incubated at 37° C. for one hour, mixed with 80 μl of 3N perchloric acid, and placed on ice for 5 min. The acid treated sample was spotted on a GF/C filter and washed with 4×5 ml of 0.15 N perchloric acid before liquid scintillation counting. Control reactions lacking either lipoteichoic acid or CDP[^3H]glycerol were included as negative controls.
(§3) The method of Burger and Glaser was generally followed. […]

TAP [2] = biological target: T2, TAP (Bacillus subtilis, UniProt P13485, A616V); assay: as above; assay type: biochemical, B. subtilis; conditions: alanine ester removed in 0.1M Tris-HCl pH 8.0, 24 hr, 37° C.
T2 construct: corresponds to a 2163 bp open reading frame beginning with ATG at bp 100 and ending with TAA at bp 2263; made in house; host or cells: E. coli DH10B / pBSRODC1 (pTrc99A vector); membrane preparation, 2M NaCl extract, High Q fraction
T2 sequence (P13485 26-746 A616V): as above
Method: as §1, §2, §3

[3] = Storage stability of the TAP enzyme; assay type: physicochemical; conditions: stored in ice

Molecule	acceptor of CDP[3H]glycerol (substrate for TAP) (TAP [1])	effect of alanine removal from lipoteichoic acid on activity of the recombinant TAP enzyme (TAP [2])	stability of the enzyme on storage [3]
lipoteichoic acid	could serve as an acceptor	improved activity	
TAP: recombinant B. subtilis rodC (tagF) gene product overexpressed in E. coli DH10B/pBSRODC1, SEQ ID NO 2 with alanine to valine change (protein) MSLVVDTNKRKQKGKSFYTEEQKKVMIENTVIKCILKSLKNNLGSLELLISIDSEHQFLEDYQLFLKLKERRSGTESEFPLQNTGSLEYKTEINAHVLPMPVEMGQTYDFYVEFRKKYEDAEQEPLLKRLSAEVNSIERAFHVDQTTELLILPYTTDKGNFSIKVKREAKIIRFDQIEISSEEISITGYAGYLSSENQYRIKNLNLILKKGGETPIEEKFPIKLERKTHGLENMRADGFVPELYDFEVKVPLKEIPFSNEKRYVYRLFMEYICNDDEGTDIQFNSTALVLGDRKNKLKGLVSIIKTNNAPVRYEVFKKKKKQTLGIRVNDYSLKTRMKYFIKGKKKRLVSKIKKITKMRNKLITKTYKSLFMMASRMPVKRKTVIFESFNGKQYSCNPRAIYEYMRENHPEYKMYWSVNKQYSAPFDEKGIPYINRLSLKWLFAMARAEYWVVNSRLPLWIPKPSHTTYLQTWHGTPLKRLAMDMEEVHMPGTNTKKYKRNFIKEASNWDYLISPNGYSTEIFTRAFQFNKTMIESGYPRNDFLHNDNNEETISLIKSRLNIPRDKKVILYAPTWRDDQFYAKGRYKFDLDLDLHQLRQELGNEYIVILRMHYLVAENFDLGPFEGFAYDFSAYEDIRELYMVSDLLITDYSSVFFDFANLKRPMLFFVPDIETYRDKLRGFYFDFEKEAPGPLVKTTEETIEAIKQISSPDYKLPVSFGPFYDKFCYLESGRSSEKVVNTVFKAE			stable for two weeks
